The source of these data is patent US20250108064A1, “PHOSPHATE PRODRUGS OF CANNABINOIDS” (priority 2021, published 2025).

One data set in a line: physchem. The following applies: aqueous buffer, kinetic from dmso stock; nephelometry, PBS pH 7.0-7.3, 1% DMSO, 25° C., 90 min. The class given is physicochemical. The protocol: General Experimental: Nephelometry experiments were performed using untreated Corning® Costar® 96-well black polystyrene plates with clear flat bottoms. Sample stock solutions and serial dilutions were prepared with DriSolv® DMSO purchased from MilliporeSigma. All 100-fold dilutions and replicate experiments were prepared using Gibco® Dulbecco's phosphate-buffered saline (DPBS, no calcium, no magnesium) with a pH range of 7.0-7.3 as aqueous media. […] Nephelometry data was obtained using a NEPHELOstar® microplate reader and processed with MARS data analysis software from BMG LabTech.
Procedure for Nephelometry Experiments: Tested compounds were dissolved in 100% DMSO to make stock solutions of specified concentrations, ranging from 10 mM minimum up to 50 mM maximum. The sample then underwent serial dilution in a 96-well plate (Corning® Costar®). Well A1 of the plate contained 100% DMSO. […] Using a 12 channel multichannel pipette, 2.5 μL of sample from row A was transferred to each well in row B through row H of the plate. Next, 30 μL of PBS (pH=7.0-7.3) was added to row B through row H, providing each well with 32.5 μL. The plate was then incubated for 30 sec with shaking. Finally, 217.5 μL of PBS buffer was added to row B through row H, and the entire plate was incubated with shaking at 25° C. for 90 min. Note: The final volume of DMSO in actual experiments with PBS buffer was 1% throughout the plate. After 90 min, the 96-well plate was analyzed with a NEPHELOstar® instrument and the data was processed with MARS data analysis software.

Data set [1] in a line: Liver microsome stability assay (HLM). The data set is classed as in vitro ADME. The note with it: human, microsomes, pH 7.4; 3 μM test compound, NADPH; read-out: T½ in HLM. The procedure: General Experimental: Human and mouse liver microsomes were purchased from Xenotech at 20 mg/mL. NADPH (Sigma-Aldrich) 10 mM stocks were prepared in deionized water.
Procedure for Liver Microsome Stability Assay: Test compounds and positive controls were dissolved in 100% DMSO to make 10 mM stock solutions. Verapamil (Sigma-Aldrich) and diphenhydramine (Sigma-Aldrich) were used as positive controls for both human liver microsomes (HLM) and mouse liver microsomes (MLM). The 10 mM stock solutions of test and control compounds were further diluted in potassium phosphate buffer (100 mM, pH 7.4) to 500 μM to ensure that the organic solvent content was <0.2%. The liver microsome (HLM or MLM) assay was prepared in a 1.5 mL Eppendorf tube with a final volume of 1100 μL for duplicate runs. Each reaction contained phosphate buffer (928.4 μL), liver microsomes (55 μL), and test compound (6.6 μL of 500 μM), resulting in a final concentration of 3 μM for the test compound. The reaction was initiated with 110 μL of 10 mM NADPH. Aliquots (100 μL) were removed in duplicate at 0, 5, 10, 15, and 30 min and quenched in […] of 100% cold methanol which contained internal standard (ISTD: d5-7-ethoxy coumarin 2 μM). The aliquots were centrifuged at 12,000 g for 5 min, and the supernatant was transferred and placed in an LC-MS vial. Each time point was assessed by LC-MS/MS, and the area under the m/z curve (AUC), based on the MRM transition, was integrated w.r.t the ISTD. Positive controls were conducted at a final volume of 550 μL to enable a single run for each time point. Negative controls in the absence of NADPH were performed with the test and control compounds, respectively, at a final volume of 150 μL and measured at the most prolonged time point. Control compounds were processed and analyzed like test compounds. Each time point was run in triplicates on LC-MS/MS followed by in-between blank washes to avoid the carryover and to equilibrate the column. Half-life (T1/2) was calculated using the data obtained from LC-MS/MS and by plotting ln (% remaining of the parent prodrug) versus time and performing linear regression to determine slope. Slope=−k and T1/2=0.693/k for first-order kinetics.

The nature of data set [2]: Plasma stability assay (human plasma). The class given is in vitro ADME. The following applies: 37° C., read-out: T½ in human plasma (converted). The procedure: General Experimental: Procaine and Procainamide were purchased from Sigma-Aldrich. Human plasma was obtained from BioIVT (Cat. No. […]2N) and 1X Dulbecco's PBS (pH 7.4, Gibco) was obtained from Thermos Fischer. Stock solutions were prepared in 100% DMSO, and suitable dilutions of target analytes were prepared in methanol for method development.
Procedure for Plasma Stability Assay: Test compounds were dissolved in DMSO to make a stock solution of 10 mM and then diluted to 500 μM in buffer (or 70% MeOH). Human plasma was thawed at ambient temperature and is aliquoted ([…]) to a 1.5 mL Eppendorf tube in duplicates (A and B) for each compound. Plasma was incubated at 37° C. for 10 minutes in an incubator shaker at 150 rpm; the reaction was initiated by the addition of the test compound (6.0 μL) and vortex mixing. The total reaction volume was 1000 μL where the final organic solvent concentrations were 0.6% MeOH and 0.03% DMSO. The spiked plasma samples were incubated at 37° C. for 4 hrs. The reactions were terminated at time points 0, 15, 30, 60, 120, 180, and 240 min by taking a 100 μL aliquot from the test incubation mixture and immediately quenching it in ice-cold acetonitrile containing internal standard (150 μL with 2 μM ISTD), followed by a quick vortex mixing. In addition, matrix blank was prepared by adding acetonitrile solutions containing ISTD to plasma samples without any of the analytes or control compounds. Also, an additional tube was made to measure compound degradation in PBS buffer. The samples were centrifuged at 15000 rpm for 25 min at 4° C. The supernatant was transferred to an LC-MS vial for analysis by LC/MS-MS. Each time point was run in duplicates followed by in-between blank washes to avoid the carryover and to equilibrate the column. Half-life (T1/2) was calculated using the data obtained from LC-MS/MS and by plotting ln (% remaining of the parent prodrug) versus time and performing linear regression to determine slope. Slope=−k and T1/2=0.693/k for first-order kinetics.
These positive controls were run in parallel to test the systems for competency.

For `C=C(C)[C@@H]1CCC(C)=C[C@H]1c1c(O)cc(CCCCC)cc1OC(=O)C1CC(OP(=O)(O)O)C1.N.N` (stereo partly drawn) [7c, 3-((((1′R,2′R)-6-hydroxy-5′-methyl-4-pentyl-2′-(prop-1-en-2-yl)-1′,2′,3′,4′-tetrahydro-[1,1′-biphenyl]-2-yl)oxy)carbonyl)cyclobutyl phosphate di-ammonium salt], in “physchem”, the solubility was above 500 µM. In addition, the half-life was 53 min in data set [1] and 432 min in data set [2].
The compound `C=C(C)[C@@H]1CCC(C)=C[C@H]1c1c(O)cc(CCCCC)cc1OC(=O)C(C)OP(=O)(O)O.N.N` (stereo partly drawn) [7d, 1-(((1′R,2′R)-6-hydroxy-5′-methyl-4-pentyl-2′-(prop-1-en-2-yl)-1′,2′,3′,4′-tetrahydro-[1,1′-biphenyl]-2-yl)oxy)-1-oxopropan-2-yl phosphate di-ammonium salt] showed a solubility in the data set “physchem” above 500 µM. The figures for the half-life in data set [1] and in data set [2] (unit min) were 50 min and 21 min, respectively.
`C=C(C)[C@@H]1CCC(C)=C[C@H]1c1c(O)cc(CCCCC)cc1OC(=O)C(C)(C)OP(=O)(O)O.N.N` [7e, 1-(((1′R,2′R)-6-hydroxy-5′-methyl-4-pentyl-2′-(prop-1-en-2-yl)-1′,2′,3′,4′-tetrahydro-[1,1′-biphenyl]-2-yl)oxy)-2-methyl-1-oxopropan-2-yl phosphate di-ammonium salt] came in with a solubility in “physchem” above 500 µM. Moreover, the half-life in data set [2] (unit min) was 24 min.
`C=C(C)[C@@H]1CCC(C)=C[C@H]1c1c(O)cc(CCCCC)cc1OC(=O)C1(OP(=O)(O)OC(C)C)CC1.N` [14a, 1-((((1′R,2′R)-6-hydroxy-5′-methyl-4-pentyl-2′-(prop-1-en-2-yl)-1′,2′,3′,4′-tetrahydro-[1,1′-biphenyl]-2-yl)oxy)carbonyl)cyclopropyl isopropyl phosphate ammonium salt]: the solubility in the data set “physchem” is above 500 µM. Besides, the half-life in data set [1] was 13 min; in data set [2], above 180 min.
For `C=C(C)[C@@H]1CCC(C)=C[C@H]1c1c(O)cc(CCCCC)cc1OC(=O)C1(OP(=O)(O)OCCCCC)CC1.N` [14b, 1-((((1′R,2′R)-6-hydroxy-5′-methyl-4-pentyl-2′-(prop-1-en-2-yl)-1′,2′,3′,4′-tetrahydro-[1,1′-biphenyl]-2-yl)oxy)carbonyl)cyclopropyl pentyl phosphate ammonium salt], in that order: 276 ± 4.52 µM, 24 min and 576 min.
In the same order, the values of `C=C(C)[C@@H]1CCC(C)=C[C@H]1c1c(O)cc(CCCCC)cc1OC(=O)C1(OP(=O)(O)OCCC(C)C)CC1.N` [14c, 1-((((1′R,2′R)-6-hydroxy-5′-methyl-4-pentyl-2′-(prop-1-en-2-yl)-1′,2′,3′,4′-tetrahydro-[1,1′-biphenyl]-2-yl)oxy)carbonyl)cyclopropyl isopentyl phosphate ammonium salt] are 345 ± 4.51 µM, 24 min and above 240 min.
In the same order, the values of `C=C(C)[C@@H]1CCC(C)=C[C@H]1c1c(O)cc(CCCCC)cc1OC(=O)C1(OP(=O)(O)OCCCCCC)CC1.N` [14d, hexyl (1-((((1′R,2′R)-6-hydroxy-5′-methyl-4-pentyl-2′-(prop-1-en-2-yl)-1′,2′,3′,4′-tetrahydro-[1,1′-biphenyl]-2-yl)oxy)carbonyl)cyclopropyl) phosphate ammonium salt] are 98 ± 1.24 µM, 32 min and above 240 min.
`C=C(C)[C@@H]1CCC(C)=C[C@H]1c1c(O)cc(CCCCC)cc1OC(=O)C1(OP(=O)(O)OCCCCCCC)CC1.N` [14e, heptyl (1-((((1′R,2′R)-6-hydroxy-5′-methyl-4-pentyl-2′-(prop-1-en-2-yl)-1′,2′,3′,4′-tetrahydro-[1,1′-biphenyl]-2-yl)oxy)carbonyl)cyclopropyl) phosphate ammonium salt] returned a solubility in the data set “physchem” of 57 ± 1.24 µM. The half-life in data set [1] is 45 min; in data set [2] it was above 240 min.
For `C=C(C)[C@@H]1CCC(C)=C[C@H]1c1c(O)cc(CCCCC)cc1OC(=O)C1(OP(=O)(O)OCCCCCCCCC)CC1.N` [14f, 1-((((1′R,2′R)-6-hydroxy-5′-methyl-4-pentyl-2′-(prop-1-en-2-yl)-1′,2′,3′,4′-tetrahydro-[1,1′-biphenyl]-2-yl)oxy)carbonyl)cyclopropyl nonyl phosphate ammonium salt], in that order: 67 ± 5.98 µM, above 30 min and above 240 min.
For `C=C(C)[C@@H]1CCC(C)=C[C@H]1c1c(O)cc(CCCCC)cc1OC(=O)C1(OP(=O)(O)OCCCCCCCCCC)CC1.N` [14g, decyl (1-((((1′R,2′R)-6-hydroxy-5′-methyl-4-pentyl-2′-(prop-1-en-2-yl)-1′,2′,3′,4′-tetrahydro-[1,1′-biphenyl]-2-yl)oxy)carbonyl)cyclopropyl) phosphate ammonium salt], in that order: 75 ± 2.14 µM, above 30 min and above 240 min.
In the same order, the values of `C=C(C)[C@@H]1CCC(C)=C[C@H]1c1c(O)cc(CCCCC)cc1OC(=O)C1(OP(=O)(O)OCC(CCC)CCC)CC1.N` [14h, 1-((((1′R,2′R)-6-hydroxy-5′-methyl-4-pentyl-2′-(prop-1-en-2-yl)-1′,2′,3′,4′-tetrahydro-[1,1′-biphenyl]-2-yl)oxy)carbonyl)cyclopropyl (2-propylpentyl) phosphate ammonium salt] are 66 ± 3.17 µM, 26 min and above 240 min.
For the compound `C=C(C)[C@@H]1CCC(C)=C[C@H]1c1c(O)cc(CCCCC)cc1OC(=O)OCOP(=O)(O)O.N.N` [compound 24, (1′R,2′R)-6-hydroxy-5′-methyl-4-pentyl-2′-(prop-1-en-2-yl)-1′,2′,3′,4′-tetrahydro-[1,1′-biphenyl]-2-yl ((phosphonooxy)methyl) carbonate di-ammonium salt], in “physchem”, the solubility is above 500 µM. Also, the half-life in data set [2] is above 240 min.
